Assay results published in US20210236442A1, “METHODS FOR DELAYING OCCURRENCE OF NEW-ONSET TYPE 2 DIABETES AND FOR SLOWING PROGRESSION OF AND TREATING TYPE 2 DIABETES” (Dalcor Pharma UK Ltd., Leatherhead, Zug Branch, priority 2018, published 2021).

Legend:
Format in all cases: in vivo, human
[1] = system: patients enrolled in the dal-OUTCOMES trial; assay: Cox proportional hazards regression of SNP rs1967309 for association with cardiovascular events per treatment arm (dal-OUTCOMES); conditions: for Event (cardiovascular events): 600 mg dalcetrapib arm; for HR (rs1967309, cardiovascular events) / β genetic (rs1967309, cardiovascular events): dalcetrapib arm
Description: Inclusion Criteria: Patients 45 years of age or older who provided written informed consent were eligible to participate if they had been hospitalized for an acute coronary syndrome characterized by elevated cardiac biomarkers, with symptoms of acute myocardial ischemia, ischemic electrocardiographic abnormalities that were new or presumed to be new, or loss of viable myocardium on imaging. Patients without elevated cardiac biomarkers were eligible to participate if symptoms of acute myocardial ischemia were accompanied by electrocardiographic changes that were new or presumed to be new and by additional evidence of obstructive coronary disease. […] However, no specific statin agent or dose was specified, and patients were not excluded if their LDL cholesterol level remained above 100 mg per deciliter. There were no exclusions on the basis of patients' HDL cholesterol level. […] The patients began a single-blind placebo-based run-in period of approximately 4 to 6 weeks to allow for patients to stabilize and for completion of any planned revascularization procedures. At the end of the run-in period, patients in stable condition were randomized in a 1:1 ratio to 600 mg of dalcetrapib or placebo on top of evidence-based medical care for acute cardiovascular syndrome (“ACS”). The descriptive statistics and analyses were performed using SAS 9.4 software.
Cox proportional hazards regression of single nucleotide polymorphism (“SNP”) rs1967309 was conducted for association with cardiovascular events in each treatment arm and in patients with a diagnosis of diabetic at baseline in the dal-OUTCOMES trial and in non-diabetic patients separately without controlling for any covariate, as shown in Table 4. Cox proportional hazards regression of SNP rs1967309 was conducted for association with cardiovascular events in each treatment arm and in diabetic and non-diabetic patients separately controlling for age and sex, as shown in Table 5.

[2] = system: patients enrolled in the dal-OUTCOMES trial; assay: Cox proportional hazards regression of diabetes for association with cardiovascular events per rs1967309 genotype and treatment arm (dal-OUTCOMES); conditions: for Event (cardiovascular events) / HR (diabetes, cardiovascular events) / β diabetes (cardiovascular events): dalcetrapib arm
Description: Inclusion Criteria: Patients 45 years of age or older who provided written informed consent were eligible to participate if they had been hospitalized for an acute coronary syndrome characterized by elevated cardiac biomarkers, with symptoms of acute myocardial ischemia, ischemic electrocardiographic abnormalities that were new or presumed to be new, or loss of viable myocardium on imaging. Patients without elevated cardiac biomarkers were eligible to participate if symptoms of acute myocardial ischemia were accompanied by electrocardiographic changes that were new or presumed to be new and by additional evidence of obstructive coronary disease. […] However, no specific statin agent or dose was specified, and patients were not excluded if their LDL cholesterol level remained above 100 mg per deciliter. There were no exclusions on the basis of patients' HDL cholesterol level. […] The patients began a single-blind placebo-based run-in period of approximately 4 to 6 weeks to allow for patients to stabilize and for completion of any planned revascularization procedures. At the end of the run-in period, patients in stable condition were randomized in a 1:1 ratio to 600 mg of dalcetrapib or placebo on top of evidence-based medical care for acute cardiovascular syndrome (“ACS”). The descriptive statistics and analyses were performed using SAS 9.4 software. […]

[3] = system: patients enrolled in the dal-OUTCOMES trial; assay: Repeated measures mixed model regression of treatment arm for fasting plasma glucose and whole-blood HbA1c per genotype and diabetes status; conditions: all rs1967309 genotypes, diabetic and non-diabetic, with and without age and sex; except AG diabetic patients
Description: (§1) The effect of ADCY9 rs1967309 genotypes on patient HbA1C and glucose levels was retrospectively assessed in patients enrolled in the dal-OUTCOMES trial.
Inclusion Criteria: Patients 45 years of age or older who provided written informed consent were eligible to participate if they had been hospitalized for an acute coronary syndrome characterized by elevated cardiac biomarkers, with symptoms of acute myocardial ischemia, ischemic electrocardiographic abnormalities that were new or presumed to be new, or loss of viable myocardium on imaging. Patients without elevated cardiac biomarkers were eligible to participate if symptoms of acute myocardial ischemia were accompanied by electrocardiographic changes that were new or presumed to be new and by additional evidence of obstructive coronary disease. […] However, no specific statin agent or dose was specified, and patients were not excluded if their LDL cholesterol level remained above 100 mg per deciliter. There were no exclusions on the basis of patients' HDL cholesterol level. […] The patients began a single-blind placebo-based run-in period of approximately 4 to 6 weeks to allow for patients to stabilize and for completion of any planned revascularization procedures. […]

[4] = system: patients enrolled in the dal-OUTCOMES trial; assay: Descriptive statistics of glucose and HbA1c, reported and change from baseline, by genotype and treatment arm; conditions: non-diabetic patients irrespective of rs1967309 genotype
Description: as §1
Inclusion Criteria: Patients 45 years of age or older who provided written informed consent were eligible to participate if they had been hospitalized for an acute coronary syndrome characterized by elevated cardiac biomarkers, with symptoms of acute myocardial ischemia, ischemic electrocardiographic abnormalities that were new or presumed to be new, or loss of viable myocardium on imaging. Patients without elevated cardiac biomarkers were eligible to participate if symptoms of acute myocardial ischemia were accompanied by electrocardiographic changes that were new or presumed to be new and by additional evidence of obstructive coronary disease. […] However, no specific statin agent or dose was specified, and patients were not excluded if their LDL cholesterol level remained above 100 mg per deciliter. There were no exclusions on the basis of patients' HDL cholesterol level. […]
Descriptive statistics of reported and change from baseline of glucose and HbA1C according to the genotype of the SNP rs1967309 were analyzed for each treatment arm and for diabetic and non-diabetic patients separately with non-parametric statistics.

[5] = system: patients of the dal-OUTCOMES trial; assay: Cox proportional hazards regression of dalcetrapib treatment arm for association with new onset diabetes
Protocol: The effect of dalcetrapib on whole-blood HbA1c levels irrespective of genotype and the impact of dalcetrapib on risk of new onset diabetes were retrospectively assessed in patients of the dal-OUTCOMES trial. The descriptive statistics and analyses were performed using SAS 9.4 software. Diabetes at baseline was defined based on at least one of the following patient criteria: (1) diagnosis of diabetics at baseline in the dal-OUTCOMES trial; (2) whole-blood HbA1c level>=6.5% at baseline; (3) fasting glucose level>=7.0 mmol/L at baseline; and (4) use of diabetes medication at or before baseline. New onset diabetes was defined in non-diabetic patients at baseline based on at least one of the following patient criteria: (1) adverse event (AE) preferred terms “type 2 diabetes mellitus” OR “diabetes mellitus” from the AE file that occurred after randomization; (2) use of diabetes medication that was initiated after randomization; (2) at least one whole-blood HbA1c measurement of >=6.5% after randomization; and (4) at least one fasting glucose measurement of >=126 mg/dl or >=7.0 mmol/L after randomization. Cox proportional hazards regression of dalcetrapib treatment arm for association with new onset diabetes was assessed. There were 598 (14%) new onset diabetes cases in the 4173 non-diabetics at baseline.

[6] = diabetic patients, controlling for age and sex
[7] = diabetic patients, no covariate
[8] = non-diabetic patients, controlling for age and sex
[9] = non-diabetic patients, no covariate
[10] = rs1967309 AA, controlling for age and sex
[11] = rs1967309 AG, controlling for age and sex
[12] = rs1967309 GG, controlling for age and sex

## CCC(CC)CC1(C(=O)Nc2ccccc2SC(=O)C(C)C)CCCCC1 [dalcetrapib]
[1]; diabetic and non-diabetic patients, with and without covariates, significance level of 5%
  SNP rs1967309 as predictor of cardiovascular events in the dalcetrapib arm: predictive of cardiovascular events
[1]; diabetic patients, Table 4
  Event (cardiovascular events): 134
[1]; diabetic patients, Table 5
  Event (cardiovascular events): 134
[1]; [6]
  HR (rs1967309, cardiovascular events): 0.6631
  β genetic (rs1967309, cardiovascular events): −0.4108
[1]; [7]
  HR (rs1967309, cardiovascular events): 0.6597
  β genetic (rs1967309, cardiovascular events): −0.4159
[1]; non-diabetic patients, Table 4
  Event (cardiovascular events): 255
[1]; non-diabetic patients, Table 5
  Event (cardiovascular events): 255
[1]; [8]
  HR (rs1967309, cardiovascular events): 0.6366
  β genetic (rs1967309, cardiovascular events): −0.4516
[1]; [9]
  HR (rs1967309, cardiovascular events): 0.6400
  β genetic (rs1967309, cardiovascular events): −0.4462
[2]; AA patients with diabetes
  effect of dalcetrapib on cardiovascular events: cardiovascular protective effect
[2]; rs1967309 AA, Table 6
  Event (cardiovascular events): 37
[2]; rs1967309 AA, Table 7
  Event (cardiovascular events): 37
[2]; [10]
  HR (diabetes, cardiovascular events): 1.6850
  β diabetes (cardiovascular events): 0.5218
[2]; rs1967309 AA, no covariate
  HR (diabetes, cardiovascular events): 1.4330
  β diabetes (cardiovascular events): 0.3597
[2]; rs1967309 AG, Table 6
  Event (cardiovascular events): 176
[2]; rs1967309 AG, Table 7
  Event (cardiovascular events): 176
[2]; [11]
  HR (diabetes, cardiovascular events): 2.2217
  β diabetes (cardiovascular events): 0.7983
[2]; rs1967309 AG, no covariate
  HR (diabetes, cardiovascular events): 2.3398
  β diabetes (cardiovascular events): 0.8501
[2]; rs1967309 GG, Table 6
  Event (cardiovascular events): 176
[2]; rs1967309 GG, Table 7
  Event (cardiovascular events): 176
[2]; [12]
  HR (diabetes, cardiovascular events): 1.6913
  β diabetes (cardiovascular events): 0.5255
[2]; rs1967309 GG, no covariate
  HR (diabetes, cardiovascular events): 1.7772
  β diabetes (cardiovascular events): 0.5750
[3]
  significance of dalcetrapib treatment arm for outcome HbA1c: significant
[4]
  HbA1c change from baseline compared to placebo: greater reductions in HbA1c
  whole-blood level of HbA1c with dalcetrapib treatment compared to placebo: systematically lower
[5]; non-diabetic patients at baseline
  effect of dalcetrapib on new onset diabetes: trend for a protective effect
[5]; non-diabetic patients at baseline, all combined and each genotype, P<0.05, with and without covariates
  association of new onset diabetes with dalcetrapib treatment arm: not found to be significantly associated
[5]; patients with diabetes at baseline and AA genotype, with and without covariates, patients with events n=27
  association with treatment arm: significant association with treatment arm
